Where two headings read alike, the source gives them in different places. Blank lines part the entries; values can stand above or below the compound they belong to.
Legend:
[1] = Absorption and distribution of radioactivity after single topical ocular dose; type: in vivo, Dutch Belted rabbits; settings: for AUClast / Cmax / T1/2,e / Tmax: 14C-netarsudil 0.02% single topical ocular dose
Protocol: A single topical ocular dose of 0.02% ^14C-netarsudil mesylate (35 μL drop) was administered to both eyes of 3 male Dutch Belted rabbits in each of 7 groups. At 0.25, 0.5, 1, 4, 8, 24, and 48 h postdose, the following samples were harvested from each group: whole blood, derived plasma, AH, vitreous humor, cornea, conjunctiva, lens, iris/ciliary body, retina-choroid-plexus, liver, and kidneys. All samples were assayed for total radioactivity. A study of the same design was conducted for AR-12286, using a single topical ocular dose of 0.5% ^3H-AR-12286 (35 μL drop).

[2] = molecular target: T1, myotonic dystrophy kinase-related CDC42-binding kinase alpha (MRCKA) (Homo sapiens, UniProt Q5VT25); experiment: Kinase-Glo luminescent protein kinase assay, MRCKA; type: biochemical; settings: average of ≥3 replicate experiments
T1 construct: purchased Upstate
T1 sequence (Q5VT25 whole entry): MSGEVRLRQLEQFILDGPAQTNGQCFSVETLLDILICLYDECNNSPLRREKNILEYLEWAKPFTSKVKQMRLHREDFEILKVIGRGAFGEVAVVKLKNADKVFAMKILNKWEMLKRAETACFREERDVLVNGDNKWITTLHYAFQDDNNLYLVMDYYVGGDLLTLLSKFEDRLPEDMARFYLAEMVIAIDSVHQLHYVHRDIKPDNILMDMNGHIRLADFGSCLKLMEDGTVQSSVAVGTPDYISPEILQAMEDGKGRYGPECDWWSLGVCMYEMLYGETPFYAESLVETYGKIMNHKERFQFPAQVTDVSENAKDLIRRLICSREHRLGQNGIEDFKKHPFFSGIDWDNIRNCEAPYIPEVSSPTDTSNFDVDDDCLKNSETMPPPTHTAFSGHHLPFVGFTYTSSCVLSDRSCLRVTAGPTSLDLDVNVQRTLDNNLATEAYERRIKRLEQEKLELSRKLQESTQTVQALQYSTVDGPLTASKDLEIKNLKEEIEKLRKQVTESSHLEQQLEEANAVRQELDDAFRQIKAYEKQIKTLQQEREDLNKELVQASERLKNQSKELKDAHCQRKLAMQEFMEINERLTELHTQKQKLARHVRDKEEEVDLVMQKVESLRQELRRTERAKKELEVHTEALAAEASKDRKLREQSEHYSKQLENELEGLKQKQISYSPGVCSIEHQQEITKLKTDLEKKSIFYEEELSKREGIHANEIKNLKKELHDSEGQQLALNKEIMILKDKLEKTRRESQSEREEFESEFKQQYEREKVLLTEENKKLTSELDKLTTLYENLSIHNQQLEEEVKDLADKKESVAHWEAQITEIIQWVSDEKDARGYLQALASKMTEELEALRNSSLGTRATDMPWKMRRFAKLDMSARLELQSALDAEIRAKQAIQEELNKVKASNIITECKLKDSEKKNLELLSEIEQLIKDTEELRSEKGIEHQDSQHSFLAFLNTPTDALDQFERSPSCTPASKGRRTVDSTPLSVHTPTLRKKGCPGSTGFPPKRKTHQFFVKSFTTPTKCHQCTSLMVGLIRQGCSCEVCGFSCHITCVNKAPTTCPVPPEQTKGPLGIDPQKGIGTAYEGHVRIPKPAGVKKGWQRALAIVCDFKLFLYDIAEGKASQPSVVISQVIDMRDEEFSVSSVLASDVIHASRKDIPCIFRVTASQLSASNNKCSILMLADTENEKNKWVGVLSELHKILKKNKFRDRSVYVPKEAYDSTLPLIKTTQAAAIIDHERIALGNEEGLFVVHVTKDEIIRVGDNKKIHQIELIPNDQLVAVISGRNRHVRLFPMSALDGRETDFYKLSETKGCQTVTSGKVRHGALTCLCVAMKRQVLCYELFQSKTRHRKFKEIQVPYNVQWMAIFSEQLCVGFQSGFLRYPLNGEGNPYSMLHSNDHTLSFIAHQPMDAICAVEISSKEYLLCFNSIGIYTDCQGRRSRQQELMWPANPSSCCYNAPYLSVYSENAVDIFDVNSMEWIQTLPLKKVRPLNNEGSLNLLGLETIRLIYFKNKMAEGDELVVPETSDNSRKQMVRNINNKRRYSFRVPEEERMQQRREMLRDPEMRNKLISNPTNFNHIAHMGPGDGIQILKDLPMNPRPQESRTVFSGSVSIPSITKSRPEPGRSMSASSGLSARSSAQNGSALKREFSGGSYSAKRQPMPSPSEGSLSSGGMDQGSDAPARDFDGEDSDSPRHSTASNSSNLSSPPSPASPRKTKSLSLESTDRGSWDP

[3] = test system: normotensive Dutch Belted rabbits; experiment: Ocular hypotensive activity (IOP) in rabbits
[4] = molecular target: T2, calcium/calmodulin-dependent protein kinase II Alpha (CAMK2A) (Homo sapiens, UniProt Q9UQM7); experiment: Kinase-Glo luminescent protein kinase assay, CAMK2A; type: biochemical; settings: average of ≥3 replicate experiments; read-out: CAM2A Ki
T2 construct: purchased Invitrogen/Life Technologies
T2 sequence (Q9UQM7 whole entry): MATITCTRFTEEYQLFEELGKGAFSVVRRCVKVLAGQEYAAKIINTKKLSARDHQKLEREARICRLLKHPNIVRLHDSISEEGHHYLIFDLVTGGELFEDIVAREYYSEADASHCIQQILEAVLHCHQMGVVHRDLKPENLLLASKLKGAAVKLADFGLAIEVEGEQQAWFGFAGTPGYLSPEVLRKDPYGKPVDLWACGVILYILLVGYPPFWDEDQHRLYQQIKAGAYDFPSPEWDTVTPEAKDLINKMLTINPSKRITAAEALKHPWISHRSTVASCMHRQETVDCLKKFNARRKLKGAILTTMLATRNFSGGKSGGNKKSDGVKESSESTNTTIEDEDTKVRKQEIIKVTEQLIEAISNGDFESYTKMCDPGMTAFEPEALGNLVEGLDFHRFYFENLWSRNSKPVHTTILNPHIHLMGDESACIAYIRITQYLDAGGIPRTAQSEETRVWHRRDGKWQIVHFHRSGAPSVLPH

[5] = test system: normotensive Formosan Rock monkeys; experiment: Ocular hypotensive activity (IOP) in monkeys; settings: 0.5%, Day 3
[6] = test system: primary porcine TM (PTM) cells; experiment: Disruption of actin stress fibers, high-content screening; type: cell-based; settings: for IC50: Sus scrofa, 6 h incubation, read-out: PTM IC50 (disruption of actin stress fibers)
[7] = test system: transformed human TM (HTM) cells (TM-1); experiment: Disruption of focal adhesions, high-content screening; type: cell-based; settings: 6 h incubation, read-out: HTM IC50 (disruption of focal adhesions)
[8] = molecular target: T3, protein kinase C-theta (PKC-theta) (Homo sapiens, UniProt Q04759); experiment: Kinase-Glo luminescent protein kinase assay, PKC-theta; type: biochemical; settings: average of ≥3 replicate experiments; read-out: PKCT Ki
T3 construct: purchased Invitrogen/Life Technologies
T3 sequence (Q04759 whole entry): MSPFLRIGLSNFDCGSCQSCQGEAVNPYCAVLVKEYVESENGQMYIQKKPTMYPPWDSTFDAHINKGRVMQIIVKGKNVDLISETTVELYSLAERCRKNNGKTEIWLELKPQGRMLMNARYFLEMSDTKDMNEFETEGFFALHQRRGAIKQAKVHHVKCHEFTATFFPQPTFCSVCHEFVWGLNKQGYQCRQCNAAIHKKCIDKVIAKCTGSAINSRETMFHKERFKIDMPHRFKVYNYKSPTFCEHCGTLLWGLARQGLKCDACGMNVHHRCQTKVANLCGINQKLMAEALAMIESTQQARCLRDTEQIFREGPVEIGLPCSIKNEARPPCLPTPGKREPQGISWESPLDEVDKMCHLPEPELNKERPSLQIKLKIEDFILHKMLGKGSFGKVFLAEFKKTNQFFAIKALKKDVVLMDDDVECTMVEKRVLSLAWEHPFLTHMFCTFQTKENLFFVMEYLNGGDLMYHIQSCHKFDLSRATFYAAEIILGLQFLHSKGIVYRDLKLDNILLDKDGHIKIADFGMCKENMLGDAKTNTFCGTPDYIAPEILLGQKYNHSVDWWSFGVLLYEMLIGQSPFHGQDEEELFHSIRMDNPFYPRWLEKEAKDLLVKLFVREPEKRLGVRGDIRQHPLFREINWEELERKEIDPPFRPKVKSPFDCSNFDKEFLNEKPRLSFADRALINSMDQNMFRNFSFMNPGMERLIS

human donor eyes = settings: perfused for 3 h; cited from earlier work
mouse eyes = settings: eyes perfused ∼1 h, cited from earlier work
[9] = molecular target: norepinephrine transporter (NET) (Homo sapiens, UniProt P23975); experiment: NET inhibitory activity (data not shown)
Sequence of norepinephrine transporter (NET) (P23975 whole entry, species assumed): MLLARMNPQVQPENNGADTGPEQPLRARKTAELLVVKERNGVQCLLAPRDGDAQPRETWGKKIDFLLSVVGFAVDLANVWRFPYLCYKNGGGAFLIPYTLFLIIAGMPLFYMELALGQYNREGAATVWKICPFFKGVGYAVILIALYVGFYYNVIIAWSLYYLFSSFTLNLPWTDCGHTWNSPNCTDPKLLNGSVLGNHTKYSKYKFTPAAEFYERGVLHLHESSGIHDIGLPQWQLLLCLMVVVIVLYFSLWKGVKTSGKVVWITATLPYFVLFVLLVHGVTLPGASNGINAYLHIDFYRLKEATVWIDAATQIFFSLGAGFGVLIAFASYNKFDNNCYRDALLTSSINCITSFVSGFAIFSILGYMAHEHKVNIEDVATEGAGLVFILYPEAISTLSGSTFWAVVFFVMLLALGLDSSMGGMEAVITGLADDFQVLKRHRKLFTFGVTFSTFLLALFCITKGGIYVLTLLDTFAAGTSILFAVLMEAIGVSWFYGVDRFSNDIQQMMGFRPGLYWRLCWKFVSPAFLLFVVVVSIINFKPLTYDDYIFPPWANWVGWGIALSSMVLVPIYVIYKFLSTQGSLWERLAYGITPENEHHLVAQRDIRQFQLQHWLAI

ROCK1 = molecular target: T4, ROCK1 (Homo sapiens, UniProt Q13464); experiment: Kinase-Glo luminescent protein kinase assay, ROCK1; type: biochemical; settings: ROCK1 and ROCK2
T4 construct: purchased Invitrogen/Life Technologies
T4 sequence (Q13464 whole entry): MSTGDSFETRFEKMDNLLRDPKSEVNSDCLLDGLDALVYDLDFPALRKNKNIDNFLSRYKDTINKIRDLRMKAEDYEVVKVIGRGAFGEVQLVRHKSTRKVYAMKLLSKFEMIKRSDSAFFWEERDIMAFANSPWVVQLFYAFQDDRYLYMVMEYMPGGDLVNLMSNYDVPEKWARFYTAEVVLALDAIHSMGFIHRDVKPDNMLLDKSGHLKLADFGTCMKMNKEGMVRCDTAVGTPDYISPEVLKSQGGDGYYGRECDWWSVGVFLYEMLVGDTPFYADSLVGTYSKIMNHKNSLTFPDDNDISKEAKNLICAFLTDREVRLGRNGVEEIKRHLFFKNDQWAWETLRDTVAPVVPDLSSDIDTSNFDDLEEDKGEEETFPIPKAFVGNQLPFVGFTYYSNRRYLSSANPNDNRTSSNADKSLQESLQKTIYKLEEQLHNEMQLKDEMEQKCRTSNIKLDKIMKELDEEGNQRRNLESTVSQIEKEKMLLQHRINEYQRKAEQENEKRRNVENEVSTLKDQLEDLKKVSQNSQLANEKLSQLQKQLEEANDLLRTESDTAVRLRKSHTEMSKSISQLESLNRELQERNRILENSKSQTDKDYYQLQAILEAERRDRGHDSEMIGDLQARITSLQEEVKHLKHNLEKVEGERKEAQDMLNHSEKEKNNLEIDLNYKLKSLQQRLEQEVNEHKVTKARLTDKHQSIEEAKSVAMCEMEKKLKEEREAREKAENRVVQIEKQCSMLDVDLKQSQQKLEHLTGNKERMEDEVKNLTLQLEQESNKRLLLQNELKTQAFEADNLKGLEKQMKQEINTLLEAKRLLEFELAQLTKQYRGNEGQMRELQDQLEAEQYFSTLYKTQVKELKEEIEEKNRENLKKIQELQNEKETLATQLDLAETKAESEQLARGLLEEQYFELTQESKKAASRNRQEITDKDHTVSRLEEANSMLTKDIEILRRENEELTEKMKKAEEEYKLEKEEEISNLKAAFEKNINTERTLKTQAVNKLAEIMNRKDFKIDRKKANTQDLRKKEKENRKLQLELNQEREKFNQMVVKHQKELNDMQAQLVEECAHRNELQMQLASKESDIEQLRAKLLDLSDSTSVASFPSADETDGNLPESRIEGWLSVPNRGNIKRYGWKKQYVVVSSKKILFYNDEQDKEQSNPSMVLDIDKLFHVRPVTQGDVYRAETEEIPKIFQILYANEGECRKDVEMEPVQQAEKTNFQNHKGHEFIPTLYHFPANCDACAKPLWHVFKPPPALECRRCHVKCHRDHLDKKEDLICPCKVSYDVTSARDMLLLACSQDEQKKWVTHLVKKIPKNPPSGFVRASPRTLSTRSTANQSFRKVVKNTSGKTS

[10] = male, Dutch Belted, rabbit, in vivo, topical or ocular
[11] = Aqueous humor, L eye, radioactivity
[12] = Aqueous humor, R eye, radioactivity
[13] = Conjuctiva, L eye, radioactivity
[14] = Conjuctiva, R eye, radioactivity
[15] = Iris-ciliary body, L eye, radioactivity
[16] = Iris-ciliary body, R eye, radioactivity
[17] = Retina-choroid-plexus, L eye, radioactivity
[18] = Retina-choroid-plexus, R eye, radioactivity
[19] = Vitreous humor, L eye, radioactivity
[20] = Vitreous humor, R eye, radioactivity

Compound: CN(C)C(C(=O)Nc1ccc2c(=O)[nH]ccc2c1)c1ccsc1 (stereo not drawn) [AR-12286]
T1/2,e values [1, 10]: 9 to 41 h
Tmax in AH [1, 10]: 0.25 to 0.5 h
terminal elimination half-life (T1/2,e) in AH [1, 10]: 9 to 11 h
Ki [2]: 28 nM
IOP reduction ([3]; 0.5%, 8 h after dosing on Day 3): 2.9 ± 0.2 mmHg
time of peak IOP-lowering efficacy after dosing ([3]; Day 1): 0.5 h
Ki [4]: 5850 nM
IOP reduction ([5]; 4 h after dosing): 5.6 ± 0.3 mmHg
IOP reduction ([5]; 24 h after dosing): 3.9 ± 0.3 mmHg
IC50 [6]: 924 nM
IC50 [7]: 818 nM
Ki [8]: 9320 nM

Compound: O=S(=O)(c1cccc2cnccc12)N1CCCNCC1 [Fasudil, reference compound]
IC50 [6]: 10100 nM
IC50 [7]: 3940 nM

Further lines, with some results ahead:

Ki [2]: 7 nM
Ki [4]: 13700 nM
IC50 [6]: 22 nM
NET inhibitory activity [9]: does not inhibit NET
IC50 [7]: 3 nM
Ki [8]: 27 nM
fold greater activity against Rho kinase than netarsudil (ROCK1): 5 fold
Compound: NC[C@@H](C(=O)Nc1ccc2cnccc2c1)c1ccc(CO)cc1 [Netarsudil-M1]
increase in outflow facility relative to control eyes (human donor eyes): 59.7%
increase in outflow facility (mouse eyes; C57 mice): 56%
increase in outflow facility (mouse eyes; CD1 mice): 91%
fold greater activity than netarsudil for disruption of actin stress fibers and focal adhesions ([6]; PTM and HTM cell-based assays): ~5 fold

IC50 [6]: 9970 nM
IC50 [7]: 1740 nM
Compound: CC(N)[C@H]1CC[C@H](C(=O)Nc2ccncc2)CC1 (stereo partly drawn) [Y27632, reference compound]

AUClast [1, 11]: 510 ng·eq·h/g
Cmax [1, 11]: 16 ng·eq/g
T1/2,e [1, 11]: 17 h
Tmax [1, 11]: 8 h
AUClast [1, 12]: 613 ng·eq·h/g
Cmax [1, 12]: 23 ng·eq/g
T1/2,e [1, 12]: 16 h
Tmax [1, 12]: 8 h
AUClast ([1]; Blood, radioactivity): 15 ng·eq·h/g
Cmax ([1]; Blood, radioactivity): 1 ng·eq/g
T1/2,e ([1]; Blood, radioactivity): 27 h
Tmax ([1]; Blood, radioactivity): 0.25 h
AUClast [1, 13]: 9,525 ng·eq·h/g
Cmax [1, 13]: 2,442 ng·eq/g
T1/2,e [1, 13]: 13 h
Tmax [1, 13]: 0.25 h
AUClast [1, 14]: 12,390 ng·eq·h/g
Cmax [1, 14]: 3,292 ng·eq/g
T1/2,e [1, 14]: 17 h
Tmax [1, 14]: 0.25 h
AUClast ([1]; Cornea, L eye, radioactivity): 63,387 ng·eq·h/g
Cmax ([1]; Cornea, L eye, radioactivity): 3,666 ng·eq/g
T1/2,e ([1]; Cornea, L eye, radioactivity): 14 h
Tmax ([1]; Cornea, L eye, radioactivity): 0.5 h
AUClast ([1]; Cornea, R eye, radioactivity): 69,605 ng·eq·h/g
Cmax ([1]; Cornea, R eye, radioactivity): 3,972 ng·eq/g
T1/2,e ([1]; Cornea, R eye, radioactivity): 13 h
Tmax ([1]; Cornea, R eye, radioactivity): 0.25 h
AUClast [1, 15]: 10,845 ng·eq·h/g
Cmax [1, 15]: 955 ng·eq/g
Tmax [1, 15]: 0.25 h
AUClast [1, 16]: 11,555 ng·eq·h/g
Cmax [1, 16]: 416 ng·eq/g
T1/2,e [1, 16]: 112 h
Tmax [1, 16]: 8 h
AUClast ([1]; Kidney, radioactivity): 298 ng·eq·h/g
Cmax ([1]; Kidney, radioactivity): 19 ng·eq/g
T1/2,e ([1]; Kidney, radioactivity): 16 h
Tmax ([1]; Kidney, radioactivity): 1 h
AUClast ([1]; Lens, L eye, radioactivity): 33 ng·eq·h/g
Cmax ([1]; Lens, L eye, radioactivity): 2 ng·eq/g
T1/2,e ([1]; Lens, L eye, radioactivity): 99 h
Tmax ([1]; Lens, L eye, radioactivity): 0.25 h
AUClast ([1]; Lens, R eye, radioactivity): 37 ng·eq·h/g
Cmax ([1]; Lens, R eye, radioactivity): 2 ng·eq/g
T1/2,e ([1]; Lens, R eye, radioactivity): 83 h
Tmax ([1]; Lens, R eye, radioactivity): 0.25 h
AUClast ([1]; Liver, radioactivity): 88 ng·eq·h/g
Cmax ([1]; Liver, radioactivity): 6 ng·eq/g
T1/2,e ([1]; Liver, radioactivity): 13 h
Tmax ([1]; Liver, radioactivity): 1 h
AUClast ([1]; Plasma, radioactivity): 24 ng·eq·h/g
Cmax ([1]; Plasma, radioactivity): 1 ng·eq/g
T1/2,e ([1]; Plasma, radioactivity): 16 h
Tmax ([1]; Plasma, radioactivity): 0.5 h
AUClast [1, 17]: 1,390 ng·eq·h/g
Cmax [1, 17]: 80 ng·eq/g
T1/2,e [1, 17]: 204 h
Tmax [1, 17]: 0.25 h
AUClast [1, 18]: 1,298 ng·eq·h/g
Cmax [1, 18]: 50 ng·eq/g
T1/2,e [1, 18]: 68 h
Tmax [1, 18]: 0.5 h
AUClast [1, 19]: 51 ng·eq·h/g
Cmax [1, 19]: 7 ng·eq/g
T1/2,e [1, 19]: 12 h
Tmax [1, 19]: 0.25 h
AUClast [1, 20]: 51 ng·eq·h/g
Cmax [1, 20]: 4 ng·eq/g
T1/2,e [1, 20]: 15 h
Tmax [1, 20]: 0.25 h
Tmax in AH ([1]; netarsudil 0.02% single topical ocular dose, radioactivity): 8 h
Compound: Cc1ccc(C(=O)OCc2ccc([C@@H]([14CH2]N)C(=O)Nc3ccc4cnccc4c3)cc2)c(C)c1 [^14C-Netarsudil]

Source: publication PMC5963640 (Journal of Ocular Pharmacology and Therapeutics, 2018)
